Where a name gives a salt, the structure may show the parent alone. Read-outs that look alike come from different tables or passages of the source.

From patent publication US20230203043A1, “NOVEL IMIDAZOPYRAZINE DERIVATIVES” (Hoffmann-La Roche Inc., priority 2020, published 2023) come the findings set out here.

This experiment concerns Acinetobacter baumannii ATCC17961. Description: Antimicrobial susceptibility testing: 90% growth inhibitory concentration (IC90) determination in Iso-Sensitest broth, OD600 growth. The format is cell-based. The gist of the method:
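Serial twofold dilution, 10 points, e.g. 50–0.097 μM final; ~5×10^(5) CFU/ml; 35±2° C, 16 h; kinetic OD600 every 20 min; IC90 from log-phase inhibition.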

The mark [1] stands for this setting: Acinetobacter baumannii, ATCC17961, 16 h, read-out: A. baumannii ATCC 17961 IC90 (uM), strain ATCC 17961, OD600 growth over 16 h.
[2] abbreviates: Acinetobacter baumannii, ATCC17961, 16 h, strain ATCC 17961, OD600 growth over 16 h, read-out: A. baumannii ATCC 17961 IC90.
The mark [3] stands for this setting: strain ATCC 17961, OD600 growth over 16 h, read-out: A. baumannii ATCC 17961 IC90.

The term IC90 denotes the point of the concentration-response curve where the effect stands at 90%. For the compound `CCc1cc(Nc2nccn3c(-c4cn(C(C)C#N)nc4C(F)(F)F)cnc23)ccc1C(=O)NCCOCCN1CCCC1` (stereo not drawn) [Example 645, 4-((3-(1-(1-cyanoethyl)-3-(trifluoromethyl)-1H-pyrazol-4-yl)imidazo[1,2-a]pyrazin-8-yl)amino)-2-ethyl-N-(2-(2-(pyrrolidin-1-yl)ethoxy)ethyl)benzamide formate], the IC90 under setting [1] stood at 0.242 µM.
Take `N#CCn1cc(-c2cnc3c(Nc4ccc(C(=O)N5CCC(NC(=O)C6CCNCC6)CC5)c(Cl)c4)nccn23)c(C(F)(F)F)n1` [Example 142, N-[1-[2-chloro-4-[[3-[1-(cyanomethyl)-3-(trifluoromethyl)pyrazol-4-yl]imidazo[1,2-a]pyrazin-8-yl]amino]benzoyl]piperidin-4-yl]piperidine-4-carboxamide]: the IC90 under setting [2] amounted to 0.554 µM.
`CCc1cc(Nc2nccn3c(-c4cn(CC#N)nc4C(F)(F)F)cnc23)ccc1C(=O)NCCNC(=O)C1CCNCC1` [Example 486, N-(2-(4-((3-(1-(cyanomethyl)-3-(trifluoromethyl)-1H-pyrazol-4-yl)imidazo[1,2-a]pyrazin-8-yl)amino)-2-ethylbenzamido)ethyl)piperidine-4-carboxamide formate]: under setting [2], the IC90 amounted to 0.208 µM.
As for `Cc1cc(Nc2nccn3c(-c4cn(CCF)nc4C(F)(F)F)cnc23)cc(F)c1C(=O)N1CCNCC1` [Example 73, [2-fluoro-4-[[3-[1-(2-fluoroethyl)-3-(trifluoromethyl)pyrazol-4-yl]imidazo[1,2-a]pyrazin-8-yl]amino]-6-methylphenyl]-piperazin-1-ylmethanone], under setting [2], the IC90 came out at 0.687 µM.
On the same count and under the same terms, as for `O=C(c1ccc(Nc2nccn3c(-c4c[nH]nc4C(F)(F)F)cnc23)cc1Cl)N1CCNCC1` [Example 431, [2-chloro-4-[[3-[3-(trifluoromethyl)-1H-pyrazol-4-yl]imidazo[1,2-a]pyrazin-8-yl]amino]phenyl]-piperazin-1-ylmethanone], the figure is 0.449 µM.
Consider `Cc1cc(Nc2nccn3c(-c4c[nH]nc4C(F)(F)F)cnc23)ccc1C(=O)N1CCN(C(=O)NCCN)CC1` [Example 428, N-(2-aminoethyl)-4-[2-methyl-4-[[3-[3-(trifluoromethyl)-1H-pyrazol-4-yl]imidazo[1,2-a]pyrazin-8-yl]amino]benzoyl]piperazine-1-carboxamide formate], for which the IC90 under setting [1] amounted to 0.465 µM.
Take `C#CCn1cc(-c2cnc3c(Nc4ccc(C(=O)N5CCC(CN)CC5)c(CC)c4)nccn23)c(C(F)(F)F)n1` [Example 46, [4-(aminomethyl)piperidin-1-yl]-[2-ethyl-4-[[3-[1-prop-2-ynyl-3-(trifluoromethyl)pyrazol-4-yl]imidazo[1,2-a]pyrazin-8-yl]amino]phenyl] methanone]: under setting [2], the IC90 turned out to be 0.093 µM.
For `C[C@@H](O)CNC(=O)c1ccc(Nc2nccn3c(-c4cn(CC#N)nc4C(F)(F)F)cnc23)cc1Cl` [Example 237, 2-chloro-4-[[3-[1-(cyanomethyl)-3-(trifluoromethyl)pyrazol-4-yl]imidazo[1,2-a]pyrazin-8-yl]amino]-N-[(2R)-2-hydroxypropyl] benzamide], the IC90 under setting [3] is 0.196 µM.
For `NCCCCNC(=O)c1ccc(Nc2nccn3c(-c4c[nH]nc4C(F)(F)F)cnc23)cc1Cl` [Example 362, N-(4-aminobutyl)-2-chloro-4-[[3-[3-(trifluoromethyl)-1H-pyrazol-4-yl]imidazo[1,2-a]pyrazin-8-yl]amino]benzamide], the IC90 under setting [2] amounted to 0.35 µM.
On the same count and under the same terms, for `CCc1cc(Nc2nccn3c(-c4cn(COC)nc4C(F)F)cnc23)ccc1C(=O)N1CCN(C(=O)CN)CC1` [Example 771, 2-amino-1-(4-(4-((3-(3-(difluoromethyl)-1-(methoxymethyl)-1H-pyrazol-4-yl)imidazo[1,2-a]pyrazin-8-yl)amino)-2-ethylbenzoyl)piperazin-1-yl)ethan-1-one] the value was 0.953 µM; for `CNC(=O)c1ccc(Nc2nccn3c(-c4cn(Cc5cc[nH]n5)nc4C(F)(F)F)cnc23)cc1Cl` [Example 284, 2-chloro-N-methyl-4-[[3-[1-(1H-pyrazol-3-ylmethyl)-3-(trifluoromethyl)pyrazol-4-yl]imidazo[1,2-a]pyrazin-8-yl]amino]benzamide], 0.177 µM.
As for `NCCNC(=O)N1CCN(C(=O)c2ccc(Nc3nccn4c(-c5c[nH]nc5C(F)(F)F)cnc34)cc2Cl)CC1` [Example 392, N-(2-aminoethyl)-4-[2-chloro-4-[[3-[3-(trifluoromethyl)-1H-pyrazol-4-yl]imidazo[1,2-a]pyrazin-8-yl]amino]benzoyl]piperazine-1-carboxamide formate], the IC90 under setting [1] amounted to 0.208 µM.
On to `CCc1cc(Nc2nccn3c(-c4c[nH]nc4C(F)(F)F)cnc23)ccc1C(=O)N1CCN(C(=O)C2CCNCC2)CC1` [Example 354, [2-ethyl-4-[[3-[3-(trifluoromethyl)-1H-pyrazol-4-yl]imidazo[1,2-a]pyrazin-8-yl]amino]phenyl]-[4-(piperidine-4-carbonyl)piperazin-1-yl]methanone hydrochloride], for which the IC90 under setting [2] turned out to be 0.918 µM.
Same read-out and setting: as for `CNC(=O)c1ccc(Nc2nccn3c(-c4cn(CCCC#N)nc4C(F)(F)F)cnc23)cc1Cl` [Example 359, 2-chloro-4-[[3-[1-(3-cyanopropyl)-3-(trifluoromethyl)pyrazol-4-yl]imidazo[1,2-a]pyrazin-8-yl]amino]-N-methylbenzamide], the figure is 0.303 µM.
As for `NCCOCCNC(=O)c1ccc(Nc2nccn3c(-c4cn(CC(F)F)nc4C(F)(F)F)cnc23)cc1Cl` [Example 252, N-[2-(2-aminoethoxy)ethyl]-2-chloro-4-[[3-[1-(2,2-difluoroethyl)-3-(trifluoromethyl)pyrazol-4-yl]imidazo[1,2-a]pyrazin-8-yl]amino] benzamide], under setting [3], the IC90 is 0.169 µM.
Take `C#CC(C)n1cc(-c2cnc3c(Nc4ccc(C(=O)N5CCN(C(=O)[C@H](N)C(C)C)CC5)c(CC)c4)nccn23)c(C(F)F)n1` (mixture of isomers) [Example 799, (2R)-2-amino-1-(4-(4-((3-(1-(but-3-yn-2-yl)-3-(difluoromethyl)-1H-pyrazol-4-yl)imidazo [1,2-a]pyrazin-8-yl)amino)-2-ethylbenzoyl)piperazin-1-yl)-3-methylbutan-1-one (mixture of epimers)]: under setting [2], the IC90 was determined as 2.74 µM.
As to `N[C@H]1C[C@H]1C(=O)N1CCN(C(=O)c2ccc(Nc3nccn4c(-c5c[nH]nc5C(F)(F)F)cnc34)cc2Cl)CC1` [Example 225, [4-[(1R,2S)-2-aminocyclopropanecarbonyl]piperazin-1-yl]-[2-chloro-4-[[3-[3-(trifluoromethyl)-1H-pyrazol-4-yl]imidazo[1,2-a]pyrazin-8-yl]amino]phenyl] methanone formate], the IC90 under setting [1] is 1.81 µM.
`O=C(NC1CC(NC(=O)[C@@H]2C[C@@H](O)CN2)C1)c1ccc(Nc2nccn3c(-c4c[nH]nc4C(F)(F)F)cnc23)cc1Cl` (stereo partly drawn) [Example 370, (2S,4R)-N-[3-[[2-chloro-4-[[3-[3-(trifluoromethyl)-1H-pyrazol-4-yl]imidazo[1,2-a]pyrazin-8-yl]amino]benzoyl]amino]cyclobutyl]-4-hydroxypyrrolidine-2-carboxamide]: under setting [2], the IC90 was 0.177 µM.
The same measure, in the same setting: as for `CCc1cc(Nc2nccn3c(-c4cn(CC(F)F)nc4C(F)F)cnc23)ccc1C(=O)N1CCN(C(=O)[C@@H](C)N)CC1` [Example 777, (R)-2-amino-1-(4-(4-((3-(1-(2,2-difluoroethyl)-3-(difluoromethyl)-1H-pyrazol-4-yl)imidazo[1,2-a]pyrazin-8-yl)amino)-2-ethylbenzoyl)piperazin-1-yl)propan-1-one], the figure is 1.02 µM.
Regarding `CCc1cc(Nc2nccn3c(-c4cn(CC#N)nc4C(F)(F)F)cnc23)ccc1C(=O)NCC(=O)N1CCC(CN)C1` (stereo not drawn) [Example 509, N-[2-[3-(aminomethyl)pyrrolidin-1-yl]-2-oxo-ethyl]-4-[[3-[1-(cyanomethyl)-3-(trifluoromethyl)pyrazol-4-yl]imidazo[1,2-a]pyrazin-8-yl]amino]-2-ethyl-benzamide formate], the IC90 under setting [1] turned out to be 0.23 µM.
The same measure, in the same setting: as for `CCc1cc(Nc2nccn3c(-c4cn(CC(F)F)nc4C(F)(F)F)cnc23)ccc1C(=O)N1CC(N)C1` [Example 556, (3-aminoazetidin-1-yl)(4-((3-(1-(2,2-difluoroethyl)-3-(trifluoromethyl)-1H-pyrazol-4-yl)imidazo[1,2-a]pyrazin-8-yl)amino)-2-ethylphenyl)methanone formate], the figure is 0.675 µM.
Consider `N#CCn1cc(-c2cnc3c(Nc4ccc(C(=O)N5CCN(C(=O)[C@H]6CCCN6)CC5)c(Cl)c4)nccn23)c(C(F)(F)F)n1` [Example 186, 2-[4-[8-[3-chloro-4-[4-[(2R)-pyrrolidine-2-carbonyl]piperazine-1-carbonyl]anilino]imidazo[1,2-a]pyrazin-3-yl]-3-(trifluoromethyl)pyrazol-1-yl]acetonitrile], for which the IC90 under setting [2] was 0.206 µM.
For the compound `CCc1cc(Nc2nccn3c(-c4cn(CC#N)nc4C(F)(F)F)cnc23)ccc1C(=O)NCCCNC(=O)CN` [Example 802, N-(3-(2-aminoacetamido)propyl)-4-((3-(1-(cyanomethyl)-3-(trifluoromethyl)-1H-pyrazol-4-yl)imidazo[1,2-a]pyrazin-8-yl)amino)-2-ethylbenzamide formate], the IC90 under setting [1] was 3.54 µM.
On to `Cc1cc(Nc2nccn3c(-c4c[nH]nc4C(F)(F)F)cnc23)ccc1C(=O)N1CCN(C(=O)N[C@@H]2CNC[C@H]2O)CC1` [Example 457, formic acid, N-[(3R,4R)-4-hydroxypyrrolidin-3-yl]-4-[2-methyl-4-[[3-[3-(trifluoromethyl)-1H-pyrazol-4-yl]imidazo[1,2-a]pyrazin-8-yl]amino]benzoyl]piperazine-1-carboxamide], for which the IC90 under setting [3] turned out to be 0.442 µM.
